Where “and” joins values, the source holds several entries; their conditions need not be identical. Equal entries are not always repeated.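 Compound exposure: 48 hours, 5 concentrations, 96-well plates. Abbreviation: GI50, concentration required for 50% inhibition of growth. TGI: total growth inhibition.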
Assays:
Experiment in all cases: NCI tumour cell line growth inhibition, 48 h
CAKI-1 renal = system: CAKI-1 renal
OVCAR-3 ovarian = system: OVCAR-3 ovarian
OVCAR-5 ovarian = system: OVCAR-5 ovarian
RPMI-8226 leukemia = system: RPMI-8226 leukemia
NCI-H23 lung = system: NCI-H23 lung
SF-268 CNS = system: SF-268 CNS
SK-MEL-28 melanoma = system: SK-MEL-28 melanoma
SNB-19 CNS = system: SNB-19 CNS
SK-MEL-2 melanoma = system: SK-MEL-2 melanoma
EKVX NSCLC = system: EKVX NSCLC

Compound	GI50 (CAKI-1 renal)	TGI (CAKI-1 renal)	GI50 (OVCAR-3 ovarian)	TGI (OVCAR-3 ovarian)	GI50 (OVCAR-5 ovarian)	TGI (OVCAR-5 ovarian)	GI50 (RPMI-8226 leukemia)	TGI (RPMI-8226 leukemia)	GI50 (NCI-H23 lung)	TGI (NCI-H23 lung)	GI50 (SF-268 CNS)	TGI (SF-268 CNS)	GI50 (SK-MEL-28 melanoma)	TGI (SK-MEL-28 melanoma)	GI50 (SNB-19 CNS)	TGI (SNB-19 CNS)	GI50 (SK-MEL-2 melanoma)	TGI (SK-MEL-2 melanoma)	GI50 (EKVX NSCLC)	TGI (EKVX NSCLC)
CO/N=C(/C)COc1ccc2c(c1)oc(=O)c1cc(OC)ccc12	97600 nM	> 100 µM	> 100000 nM	> 100 µM	> 100 µM	> 100 µM	> 100000 nM	> 100 µM	> 100 µM	> 100 µM	> 100 µM	> 100 µM	> 100 µM	> 100 µM	> 100 µM	> 100 µM	> 100 µM	> 100 µM	> 100 µM	> 100 µM
CCN1CCN(Cc2ccc(NC(=O)Nc3nc(-c4cc(OC)c(OC)c(OC)c4)cs3)cc2C(F)(F)F)CC1	1910 nM	4.9 µM	2280 nM	6.89 µM	1.62 µM	3.44 µM	1630 nM	4.24 µM	1.69 µM	3.59 µM	1.87 µM	5.76 µM	1.65 µM	3 µM	1.75 µM	3.43 µM	1.9 µM	3.61 µM	1.81 µM	4.25 µM
Cn1c2c(c3ccccc31)CCN1C[C@@H]3CCCC[C@H]3C[C@@H]21	2920 nM	> 29.5 µM	1950 nM	4.74 µM	3.82 µM	> 100 µM	3060 nM	> 26.3 µM	3.55 µM	> 100 µM	3.22 µM	> 40.2 µM	6.03 µM	> 100 µM	5.15 µM	> 100 µM	5.8 µM	> 26.7 µM	5.57 µM	> 100 µM
CC1(C)CC[C@]23CC[C@]4(C)[C@H](CC[C@@H]5[C@@]6(C)CCCNC(C)(C)[C@@H]6CC[C@]54C)[C@H]2[C@H]1OC3	1620 nM	2.97 µM	1620 nM	3.1 µM	1.6 µM	3.04 µM	1940 nM	4.58 µM	1.76 µM	3.5 µM	2.04 µM	5.31 µM	1.66 µM	3.18 µM	1.85 µM	3.35 µM	1.95 µM	4.09 µM	1.68 µM	3.37 µM
COc1cccc2nc(Nc3cccc(NC(=O)c4ccc(N5CCN(C)CC5)c(C(F)(F)F)c4)c3)ccc12	1120 nM	3.46 µM	1210 nM	3.07 µM	1.53 µM	4.99 µM	1650 nM	6.44 µM	2.93 µM	10.6 µM	1.5 µM	7.3 µM	0.896 µM	1.64 µM	1.11 µM	2.29 µM	1.36 µM	3.65 µM	1.83 µM	6.92 µM
O=C(O)C1=Cc2cccc3cccc(c23)C1=O		> 100 µM		> 100 µM		> 100 µM		> 100 µM		> 100 µM		> 100 µM		> 100 µM		> 100 µM		> 100 µM		> 100 µM
C[n+]1cccc(NC(=O)c2ccc3ccc4ccc(C(=O)Nc5ccc[n+](C)c5)nc4c3n2)c1	4930 nM	> 100 µM	4300 nM	> 100 µM	47.8 µM	> 100 µM	2990 nM	> 100 µM	1.41 µM	> 45 µM	3.82 µM	42.1 µM	2.13 µM	> 100 µM	1.61 µM	> 27 µM	6.71 µM	> 100 µM	5.08 µM	> 100 µM
CS(=O)(=O)Nc1cc(-c2ccc3ncc(C#N)c(Nc4ccc(F)c(Cl)c4)c3c2)cnc1Cl	258 nM	1.24 µM	65.7 nM	0.909 µM	0.308 µM	2.29 µM	83.3 nM	0.469 µM	0.108 µM	3.91 µM	0.133 µM		0.133 µM	1.47 µM	0.212 µM	1.64 µM	0.133 µM	0.53 µM	0.275 µM	3.29 µM
COc1ccc2[nH]c(C(=O)OCc3ccc4c(Br)cc(Br)c(O)c4n3)cc2c1	482 nM	1.83 µM	447 nM	1.56 µM	1.21 µM	2.66 µM	308 nM	1.29 µM	1.38 µM	2.99 µM	1.48 µM	2.92 µM	1.26 µM	2.53 µM	1.5 µM	2.89 µM	1.55 µM	3.12 µM	1.41 µM	2.82 µM
CNC(=O)/C=C/C1=CN2C(=O)c3ccc(C)c(O)c3NC(OC)C2C1 (stereo not drawn)		2.63 µM		0.417 µM		> 31 µM		16.2 µM		< 0.0177 µM		0.08 µM		< 0.0131 µM		27.6 µM		< 0.01 µM		< 0.0344 µM
COc1ccc(N=Nc2ccc(O)c(=O)cc2)cc1	3770 nM	> 100 µM	3640 nM	> 100 µM	5.89 µM	> 100 µM	2680 nM	43.7 µM	3.02 µM	> 100 µM	3.62 µM	> 100 µM	3.06 µM	31.6 µM	2.92 µM	51.6 µM	5.01 µM	41.1 µM	4.3 µM	> 100 µM
COc1cc(/C=C2\CC3C4CCC5=CC(=O)CC[C@]5(C)C4CC[C@]3(C)C2=O)ccc1OCCN1CCCC1 (stereo partly drawn)	2890 nM	10.5 µM	2370 nM	6.01 µM	2.64 µM	8.26 µM	202 nM	0.889 µM	3.31 µM	13.4 µM	3.41 µM	19.4 µM	2.7 µM	8.11 µM	4.16 µM	18.8 µM	4.21 µM	14.8 µM	3.98 µM	17.3 µM
O=C1CCc2cc(Br)ccc2O1		> 100 µM		> 100 µM		> 100 µM		> 100 µM		> 100 µM		> 100 µM		> 100 µM		> 100 µM		> 100 µM		> 100 µM
NS(=O)(=O)c1ccc(N=Nc2c(O)[nH]c3ccc(C(=O)NCCCn4ccnc4)cc23)cc1	> 25000 nM	> 25 µM	> 25000 nM	> 25 µM	> 25 µM	> 25 µM	> 25000 nM	> 25 µM	> 25 µM	> 25 µM	> 25 µM	> 25 µM	> 25 µM	> 25 µM	> 25 µM	> 25 µM	> 25 µM	> 25 µM	> 25 µM	> 25 µM
CC[C@]12C=CCN3CC[C@]4(C(=C(C(=O)OC)C1)Nc1cc5c(cc14)[C@@H]1[C@H](O5)[C@@H](O)[C@@]4(CC)CC(C(=O)OC)=C5Nc6ccccc6[C@@]56CCN1[C@@H]46)[C@@H]32	81.9 nM and 268 nM	8.09 µM and 37.7 µM	240 nM and 255 nM	1.13 µM and 1.29 µM	0.749 µM and 0.826 µM	25 µM and 21.3 µM	141 nM and 234 nM	2.49 µM and 1.5 µM	0.577 µM and 0.316 µM	4.51 µM and 1.46 µM	1.15 µM and 1.2 µM	19.7 µM and 54.5 µM	1.07 µM and 1.32 µM	9.29 µM and 24.2 µM	0.644 µM and 0.592 µM	25 µM and 42.1 µM	1.13 µM and 1.18 µM	25 µM and > 100 µM	0.927 µM and 0.748 µM	25 µM and 33.8 µM
CC(=O)OC1C(O)C(C)OC(OC2C(OC(=O)C3CCC4C(C3)OC3(CC(OC(=O)/C=C/c5ccccc5)C(C)CO3)C43CO3)OC(C)C(O)C2OC(C)=O)C1O (stereo not drawn)		1.21 µM		0.0451 µM		0.144 µM		0.0945 µM		0.0615 µM		0.0499 µM		0.0305 µM		0.0316 µM		0.0189 µM		0.074 µM
CCOC(=O)c1c(-c2ccccc2)n2c(=O)cc(C)c3c(O)c(O)cc1c32	9840 nM	36.2 µM	2380 nM	17 µM	22.5 µM	46.7 µM	3980 nM	17.9 µM	6.06 µM	37.5 µM	3.35 µM	20.2 µM	12.7 µM	29.3 µM	11.4 µM	35.7 µM	4.09 µM	41.3 µM	8.73 µM	24.3 µM
Cn1cc(-c2csc(-c3ccccc3)n2)c2cccnc21	7100 nM	31.7 µM	16300 nM	32 µM	14 µM	32.7 µM	14300 nM	98 µM	16.2 µM	38 µM	16.8 µM	43 µM	15.7 µM	31.5 µM	15.9 µM	47.8 µM	18.5 µM	42.3 µM	5.2 µM	35.2 µM
Cc1c(O)cccc1C(=O)N[C@@H](CSc1ccccc1)[C@H](O)CN1C[C@H]2CCCC[C@H]2C[C@H]1C(=O)NC(C)(C)C	2570 nM and 9320 nM	6.56 µM and > 37.8 µM	2620 nM and 5240 nM	9.46 µM and 16.2 µM	8.95 µM and 6.31 µM	31.6 µM and 19 µM	2230 nM and 2010 nM	4.69 µM and 7.21 µM	6.68 µM and 7 µM	30.6 µM and 26.3 µM	4.5 µM and 5.97 µM	15.8 µM and 26 µM	5.68 µM and 7.33 µM	19.3 µM and 22.2 µM	3.17 µM and 6.96 µM	16.1 µM and > 43.8 µM	5.63 µM and 5.26 µM	> 100 µM and 25.4 µM	4.86 µM and 6.92 µM	38 µM and > 43.4 µM
COc1ccccc1CNCCCN1C(=O)c2ccc3c4c(ccc(c24)C1=O)C(=O)N(CCCNCCCCNCCCN)C3=O	2600 nM	10.4 µM	261 nM	0.699 µM	2.03 µM	11 µM	626 nM	10.8 µM	0.356 µM	2.05 µM	0.333 µM	3.61 µM	0.388 µM	1.44 µM	0.574 µM	3.97 µM	0.227 µM	0.591 µM	1.39 µM	3.22 µM
CC(=O)[O-].CC(=O)[O-].O=C([CH-]C(=O)c1ccccc1)c1ccccc1.[Nd+3].[OH3+]	27900 nM	91.3 µM	10700 nM	33.5 µM	68.4 µM	> 100 µM	22800 nM	> 100 µM	18.7 µM	57.7 µM	16.8 µM	> 100 µM	23.3 µM	81.2 µM	30.1 µM	> 100 µM	16.4 µM	50.7 µM	24.5 µM	76.5 µM
CSC1=CC(=O)c2ccccc2C1=O	1590 nM	3.11 µM	1780 nM	3.37 µM	17.4 µM	34.2 µM	2610 nM	7.96 µM	3.45 µM	17.5 µM	8.85 µM	22.1 µM	11.1 µM	23.8 µM	13.8 µM	29.4 µM	11.6 µM	33.7 µM	15.5 µM	34.9 µM
CC(C)c1cnc(-c2cc(Cl)ccc2F)cc1Nc1ccncc1C(=O)NC(CO)CO	6280 nM	68.7 µM	14300 nM	32.8 µM	16.2 µM	39.6 µM	13500 nM	52.6 µM	13.9 µM	33.5 µM	12.3 µM	33 µM	16.9 µM	32.8 µM	15.6 µM	54 µM	18 µM	38.5 µM	11.2 µM	24.6 µM
O=C(O)c1ccc(CSc2nc3ccccc3[nH]2)cc1	> 100000 nM	> 100 µM	> 100000 nM	> 100 µM	> 100 µM	> 100 µM	> 100000 nM	> 100 µM	> 100 µM	> 100 µM	> 100 µM	> 100 µM	> 100 µM	> 100 µM	> 100 µM	> 100 µM	> 100 µM	> 100 µM	> 100 µM	> 100 µM
CCOC(=O)C#Cc1cccc(C#CC(=O)OCC)c1		10.2 µM		13.4 µM		2.4 µM		13 µM		10.6 µM		16.7 µM		9.99 µM		11.4 µM		5.04 µM		2.42 µM
Nc1nc2ccc(CNc3ccc(C(=O)NC(CC(=O)O)C(=O)O)cc3)cc2c(=O)[nH]1 (stereo not drawn)	1370 nM	> 100 µM	16200 nM	> 100 µM	> 47.2 µM	> 100 µM	9230 nM	> 100 µM	5.83 µM	> 100 µM	5 µM	> 100 µM	> 96 µM	> 100 µM	> 82.5 µM	> 100 µM	> 100 µM	> 100 µM		> 100 µM

Reference: PubChem BioAssay (NCI)
